Measured values: US10155971B2, “Rapid antibiotic susceptibility testing system based on bacterial immobilization using gelling agent, antibiotic diffusion and tracking of single bacterial cells” (SNU R & DB FOUNDATION, priority 2012, dated 2018)
≈ marks a conversion by molar mass, not a printed value.

Experiments:
[1] = test system: Escherichia coli ATCC 25922; assay: Rapid antibiotic susceptibility test (RAST) in microfluidic agarose channel (MAC), MIC by single-cell time-lapse imaging; format: cell-based; settings: E. coli ATCC 25922, RAST method in MAC; for MIC: Escherichia coli, ATCC25922
Description: Radial microfluidic channels with six branches were formed using soft-lithography. First, SU8 mold (2015 SU8, Microchem) was fabricated by employing photolithography. Polydimethylsiloxane (PDMS, Dow Corning) was mixed with a curing agent (10:1, w/w) and poured into the SU8. After baking at 150° C. for 10 min, the PDMS was peeled off and attached to the PDMS-coated slide glass by O2 plasma treatment to obtain a radial microfluidic channel chip capable of testing antibiotics having five concentrations and a control with no antibiotic. There were six main channels that carried one side-branched channel each. […] A mixture of agarose and bacteria was allowed to flow in the main channels, and the bioactive agents were allowed to flow in the respective side-branched channels. In the middle of each main channel, there were anchors in the form of micro-sized posts for forming an interface between the agarose and each of the bioactive agents. The posts blocked the agarose from flowing into the side-branched channel. The sizes of the posts and the pitches between the posts were determined by mathematical calculations. For appropriate hydrophobicity to occur in the channel, the channel was prepared one day before experiment to increase the surface tension after O2 plasma treatment. Agarose is solidified at a temperature lower than 36° C. The cultured bacteria were mixed with 2% agarose (1:3, v/v) at 45° C. and immediately injected into the microfluidic channels. The agarose-bacteria mixture was solidified at 25° C. for 1 min. The obtained microfluidic agarose channel (MAC) chip was placed on a hot plate and incubated at 37° C. To provide nutrients, liquid CAMHB medium was supplied through the side-branched channels. The growth of the bacteria was monitored using a microscope. Bacterial growth was not inhibited and could be clearly monitored in the MAC system. Bacterial cell images were taken with a CCD camera; the images were then processed to determine the MIC values of the antibiotics. The image data were transformed into digital data using an image processing program, which is coded in Matlab. For the calculations, RGB images were transformed into grey formatted images. The background data were eliminated to obtain sharp data without noise. Then, the contrast was enhanced to change the processed images into binary format images. […] The Matlab program calculated the areas that were occupied by each bacterium. A longer incubation time allowed each bacterium to grow and occupy more area. The occupied areas were measured using the image processing program. […] Bacterial growth was monitored by using a microscope (40×) and a CCD camera. Images of bacterial growth were taken every hour and were analyzed by using the image processing program. […]

[2] = test system: Staphylococcus aureus ATCC 29213; assay: as above; format: cell-based; settings: S. aureus ATCC 29213, RAST method in MAC; for MIC: Staphylococcus aureus, ATCC29213
Description: (§1) Radial microfluidic channels with six branches were formed using soft-lithography. First, SU8 mold (2015 SU8, Microchem) was fabricated by employing photolithography. Polydimethylsiloxane (PDMS, Dow Corning) was mixed with a curing agent (10:1, w/w) and poured into the SU8. After baking at 150° C. for 10 min, the PDMS was peeled off and attached to the PDMS-coated slide glass by O2 plasma treatment to obtain a radial microfluidic channel chip capable of testing antibiotics having five concentrations and a control with no antibiotic. There were six main channels that carried one side-branched channel each. […] A mixture of agarose and bacteria was allowed to flow in the main channels, and the bioactive agents were allowed to flow in the respective side-branched channels. In the middle of each main channel, there were anchors in the form of micro-sized posts for forming an interface between the agarose and each of the bioactive agents. The posts blocked the agarose from flowing into the side-branched channel. The sizes of the posts and the pitches between the posts were determined by mathematical calculations. For appropriate hydrophobicity to occur in the channel, the channel was prepared one day before experiment to increase the surface tension after O2 plasma treatment. Agarose is solidified at a temperature lower than 36° C. The cultured bacteria were mixed with 2% agarose (1:3, v/v) at 45° C. and immediately injected into the microfluidic channels. The agarose-bacteria mixture was solidified at 25° C. for 1 min. The obtained microfluidic agarose channel (MAC) chip was placed on a hot plate and incubated at 37° C. To provide nutrients, liquid CAMHB medium was supplied through the side-branched channels. The growth of the bacteria was monitored using a microscope. Bacterial growth was not inhibited and could be clearly monitored in the MAC system. Bacterial cell images were taken with a CCD camera; the images were then processed to determine the MIC values of the antibiotics. The image data were transformed into digital data using an image processing program, which is coded in Matlab. For the calculations, RGB images were transformed into grey formatted images. The background data were eliminated to obtain sharp data without noise. Then, the contrast was enhanced to change the processed images into binary format images. […] The Matlab program calculated the areas that were occupied by each bacterium. A longer incubation time allowed each bacterium to grow and occupy more area. The occupied areas were measured using the image processing program. 200 μl of Mueller-Hinton agar including 5×10^8 cells/ml bacterial cells and 600 μl of 2% liquid agarose at 45° C. was mixed thoroughly by a vortex generator (vortex Genie 2). The agarose-bacteria mixture was placed in the main channels of the microfluidic channel system using a syringe pump (KdScientific) at stable flow rate (2 ml/hr) to prevent bursting into the side-branched channels. After the liquid agarose was solidified at room temperature to immobilize the bacteria in the main channels, the MHA medium containing the antibiotic was injected into the side-branched channels using the syringe pump at a rate of 10 μl/hr to diffuse into the agarose-bacteria mixture. Bacterial growth was monitored by using a microscope (40×) and a CCD camera. Images of bacterial growth were taken every hour and were analyzed by using the image processing program. […] The obtained MIC values were verified by the conventional method (microdilution method) and compared with the MIC data of the CLSI. […] The images of the left group are RGB images before processing, and the images of the right group are images after processing for clear observation. After image processing, the bacteria that occupied the area were measured and plotted on the graph for different concentrations of gentamicin according to the incubation time. […] The MIC values were in the MIC ranges of the CLSI data.

[3] = test system: Pseudomonas aeruginosa ATCC 27853; assay: as above; format: cell-based; settings: P. aeruginosa ATCC 27853, RAST method in MAC; for MIC: Pseudomonas aeruginosa, ATCC27853
Description: as §1

S. aureus ATCC 29213 = settings: CLSI range; cited from earlier work
E. coli ATCC 25922 = settings: CLSI range; cited from earlier work
P. aeruginosa ATCC 27853 = settings: CLSI range; cited from earlier work
[4] = test system: P. aeruginosa ATCC 27853 biofilm; assay: Antibiotic susceptibility of biofilms in the MAC system; format: cell-based, Pseudomonas aeruginosa; settings: biofilm formation by 4 hr aging in the MAC system

Row | Compound | MIC [1] | MIC [2] | MIC [3] | MIC, CLSI (S. aureus ATCC 29213) | MIC, CLSI (E. coli ATCC 25922) | MIC, CLSI (P. aeruginosa ATCC 27853) | MIC value after biofilm formation [4] | MIC, RAST [1] | MIC, RAST [2] | MIC, RAST [3]
1 | NCC[C@H](O)C(=O)N[C@@H]1C[C@H](N)[C@@H](O[C@H]2O[C@H](CN)[C@@H](O)[C@H](O)[C@H]2O)[C@H](O)[C@H]1O[C@H]1O[C@H](CO)[C@@H](O)[C@H](N)[C@H]1O [Amikacin] | 4 µg/mL (≈ 6.83 µM) | 4 µg/mL (≈ 6.83 µM) | 4 µg/mL (≈ 6.83 µM) | 1 to 4 µg/mL | 0.5 to 4 µg/mL | 1 to 4 µg/mL | – | – | – | –
2 | CCn1cc(C(=O)O)c(=O)c2cc(F)c(N3CCNCC3)cc21 [Norfloxacin] | 0.03 µg/mL (≈ 0.0939 µM) | 0.5 µg/mL (≈ 1.57 µM) | 2 µg/mL (≈ 6.26 µM) | 0.5 to 2 µg/mL | 0.03 to 0.12 µg/mL | 1 to 4 µg/mL | 32 µg/mL (≈ 100 µM) | – | – | –
3 | CN(C)[C@@H]1C(O)=C(C(N)=O)C(=O)[C@@]2(O)C(O)=C3C(=O)c4c(O)cccc4[C@@](C)(O)[C@H]3C[C@@H]12 [Tetracycline] | 1 µg/mL (≈ 2.25 µM) | 0.5 µg/mL (≈ 1.13 µM) | 32 µg/mL (≈ 72 µM) | – | – | – | – | – | – | –
4 | gentamicin [Geninmycin] | – | – | – | 0.12 to 1 µg/mL | 0.25 to 1 µg/mL | 0.5 to 2 µg/mL | – | 1 µg/mL | 1 µg/mL | 2 µg/mL
